Assay results as given in ChEMBL document CHEMBL1137590, “(3R)-4-[(3R)-3-Amino-4-(2,4,5-trifluorophenyl)butanoyl]-3-(2,2,2-trifluoroethyl)-1,4-diazepan-2-one, a selective dipeptidyl peptidase IV inhibitor for the treatment of type 2 diabetes” (Bioorg Med Chem Lett, 2007).

Tests used:
Dipeptidyl peptidase 2 = Dipeptidyl peptidase 2 (Homo sapiens, UniProt Q9UHL4); test: In vitro inhibition of QPP dipeptidylpeptidase II
[1] = Plasma clearance in dogs; format: ADME, organism-based, Canis lupus familiaris; settings: dog, read-out: Clp
[2] = Half-life in dogs; format: ADME, organism-based, Canis lupus familiaris; settings: dog, in vivo
[3] = Oral bioavailability in dogs; format: ADME, organism-based, Canis lupus familiaris; settings: dog, in vivo
Canis familiaris = species on record: Canis familiaris; test: Dose-normalized area under plasma concentration vs time curve in dogs; format: ADME, organism-based, Canis lupus familiaris; settings: dog, in vivo
[4] = Plasma clearance in rats; format: ADME, organism-based; settings: rat, read-out: Clp
[5] = Half-life in rats; format: ADME, organism-based; settings: rat, in vivo
[6] = Oral bioavailability in rats; format: ADME, organism-based; settings: rat, in vivo
Rattus norvegicus = species on record: Rattus norvegicus; test: Dose-normalized area under plasma concentration vs time curve in rats; format: ADME, organism-based; settings: in vivo

SMILES	IC50 (Dipeptidyl peptidase 2)	clearance [1]	half-life [2]	bioavailability [3]	AUC (Canis familiaris)	clearance [4]	half-life [5]	bioavailability [6]	AUC (Rattus norvegicus)
N[C@@H](CC(=O)N1CCCNC(=O)C1)Cc1cc(F)c(F)cc1F	> 100 µM	–	–	–	–	–	–	–	–
C[C@@H]1C(=O)NCCCN1C(=O)C[C@H](N)Cc1cc(F)c(F)cc1F	–	9 mL/min/kg	4.3 h	100%	8.5 uM h/(mg/kg)	88 mL/min/kg	1 h	26%	0.15 uM h/(mg/kg)
N[C@@H](CC(=O)N1CCCNC(=O)[C@H]1CC(F)(F)F)Cc1cc(F)c(F)cc1F	–	18 mL/min/kg	9 h	95%	2.2 uM h/(mg/kg)	94 mL/min/kg	2 h	36%	0.2 uM h/(mg/kg)
